From PubChem BioAssay (NCI) come the findings set out here.

Structures are written as SMILES. Several values for one entry are separate records, joined by “and”; a condition that tells them apart may be missing. Equal values may be shown once.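 Dose response: 5 concentrations. Exposure: 48 h. Format: 96-well plates. Endpoint: linear interpolation; highest concentration if not reached. GI50: concentration for 50% inhibition of growth. TGI: total growth inhibition.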

Some test systems named below: HOP-62 NSCLC; OVCAR-8 ovarian; OVCAR-4 ovarian; HOP-92 NSCLC; HL-60(TB) leukemia; SN12C renal; COLO 205 colon; HCT-15 colon; MOLT-4 leukemia; A498 renal.
Common to all, as to assay: NCI tumour cell line growth inhibition, 48 h

Take `O=C(NCCN1CCCCC1)c1ccc(Br)cc1`: the TGI in the assay with HOP-62 NSCLC, with OVCAR-8 ovarian, in the assay on OVCAR-4 ovarian, in the assay on HOP-92 NSCLC, with HL-60(TB) leukemia and in the assay with SN12C renal was more than 100 µM in each case. In addition, the TGI in the assay with COLO 205 colon, in the assay with HCT-15 colon, in the assay with MOLT-4 leukemia and with A498 renal was more than 100 µM throughout.

For `CC1=NN(c2nc(N)nc(NS(=O)(=O)c3cc(C)c(Cl)cc3S)n2)C(C)(C)C1`, the TGI with HOP-62 NSCLC, in the assay on OVCAR-8 ovarian, with OVCAR-4 ovarian, in the assay on HOP-92 NSCLC, in the assay with HL-60(TB) leukemia and in the assay on SN12C renal was more than 10 µM throughout. Moreover, the TGI in the assay with COLO 205 colon, in the assay with HCT-15 colon, with MOLT-4 leukemia and in the assay with A498 renal was more than 10 µM throughout.

Regarding `FC(F)(F)c1ccccc1C1SCC2=Nc3ccccc3CN21` (configuration not stated), the TGI with HOP-62 NSCLC is 23.1 µM; in the assay on OVCAR-8 ovarian it was 30.5 µM; with OVCAR-4 ovarian it was 30.1 µM; in the assay with HOP-92 NSCLC, 60.9 µM; in the assay on HL-60(TB) leukemia, 66.2 µM; in the assay on SN12C renal, more than 100 µM. Also, the TGI in the assay on COLO 205 colon was 25 µM; in the assay with HCT-15 colon, 27.1 µM; in the assay with MOLT-4 leukemia, more than 100 µM; with A498 renal it was 35.3 µM.

As for `CS(=O)(=O)N1CC(CCl)c2ccc(NO)cc21` (configuration not stated), the TGI came out at 47.4 µM in the assay on HOP-62 NSCLC; 27.9 µM in the assay with OVCAR-8 ovarian; 40.7 µM in the assay on OVCAR-4 ovarian; 27.9 µM in the assay on HOP-92 NSCLC; 20 µM in the assay on HL-60(TB) leukemia; 32.6 µM with SN12C renal. The TGI in the assay with COLO 205 colon is more than 57.2 µM; with HCT-15 colon, 28.6 µM; in the assay with MOLT-4 leukemia it was 19 µM; in the assay on A498 renal, 31.5 µM.

For `CN(C)CCNc1ccc2ncn3c4ccccc4c(=O)c1c23`, the TGI in the assay on HOP-62 NSCLC is 19.4 µM; in the assay with OVCAR-8 ovarian, 10.7 µM; in the assay on OVCAR-4 ovarian, 5 µM; with HOP-92 NSCLC, 9.51 µM; with HL-60(TB) leukemia it was more than 100 µM; with SN12C renal it was 38.4 µM. Further, the TGI with COLO 205 colon was 4.03 µM; in the assay with HCT-15 colon, 13.9 µM; in the assay with MOLT-4 leukemia, more than 100 µM; in the assay on A498 renal, 21.1 µM.

In the case of `COc1ccccc1/C=C(/C)[N+](=O)[O-]`, the TGI in the assay with HOP-62 NSCLC was more than 100 µM; in the assay on OVCAR-8 ovarian it was 4 µM and 4.24 µM; in the assay on OVCAR-4 ovarian, 23.6 µM and 14.8 µM; in the assay with HOP-92 NSCLC it was 5.72 µM; with HL-60(TB) leukemia it was 4.21 µM and 5.4 µM; in the assay with SN12C renal, 4.96 µM and 4.41 µM. Besides, the TGI is 10.3 µM with COLO 205 colon; 7.43 µM and 5.11 µM in the assay with HCT-15 colon; 0.598 µM and 1.5 µM in the assay with MOLT-4 leukemia; 21.5 µM and 18.4 µM in the assay on A498 renal.

Turning to `CC(C)/C=C1\CCC(CN(C)C)C1=O` (configuration not stated), the TGI in the assay with HOP-62 NSCLC was determined as 46.3 µM; in the assay with OVCAR-8 ovarian, 6.97 µM; in the assay with OVCAR-4 ovarian, 30.8 µM; with HOP-92 NSCLC it was 3.47 µM; with HL-60(TB) leukemia it was 4.55 µM; in the assay on SN12C renal, 16.3 µM. In addition, the TGI turned out to be 1.41 µM in the assay on COLO 205 colon, 4.68 µM in the assay on HCT-15 colon, 3.48 µM in the assay with MOLT-4 leukemia and 16.7 µM in the assay with A498 renal.

`C#CC[C@@H]1C(=O)N(Cc2ccc(OC)cc2)[C@@H](C(C)C)C(=O)N1Cc1ccc(OC)cc1`: the TGI is more than 100 µM with HOP-62 NSCLC; more than 100 µM with OVCAR-8 ovarian; more than 100 µM in the assay on OVCAR-4 ovarian; more than 100 µM in the assay on HOP-92 NSCLC; 8.53 µM in the assay on HL-60(TB) leukemia; more than 100 µM with SN12C renal. Also, the TGI in the assay with COLO 205 colon was 37 µM; in the assay with HCT-15 colon, more than 100 µM; with MOLT-4 leukemia it was 34.7 µM; in the assay with A498 renal, more than 100 µM.

On to `COc1nc(N=P(c2ccccc2)(c2ccccc2)c2ccccc2)cc(=O)n1C`, for which the TGI in the assay with HOP-62 NSCLC, in the assay with OVCAR-8 ovarian, in the assay with OVCAR-4 ovarian, in the assay with HOP-92 NSCLC, in the assay on HL-60(TB) leukemia and in the assay with SN12C renal was more than 100 µM throughout. Further, the TGI with COLO 205 colon, in the assay with HCT-15 colon, in the assay with MOLT-4 leukemia and in the assay on A498 renal was more than 100 µM each time.

Take `CC(=O)CCCCn1c(=O)c2c(nc(Br)n2C)n(C)c1=O`: the TGI in the assay with HOP-62 NSCLC was more than 100 µM; with OVCAR-8 ovarian, more than 100 µM; in the assay with OVCAR-4 ovarian it was more than 100 µM; with HOP-92 NSCLC, 31.7 µM; in the assay on HL-60(TB) leukemia it was more than 100 µM; in the assay with SN12C renal, more than 100 µM. Also, the TGI in the assay on COLO 205 colon, in the assay with HCT-15 colon, in the assay with MOLT-4 leukemia and in the assay on A498 renal was more than 100 µM each time.

For the molecule `Nc1nc2c(N)cc(C(F)(F)F)cc2nc1-c1ccccc1`, the TGI with HOP-62 NSCLC, with OVCAR-8 ovarian, with OVCAR-4 ovarian, in the assay on HOP-92 NSCLC, in the assay on HL-60(TB) leukemia and in the assay with SN12C renal was more than 100 µM in each case. Also, the TGI with COLO 205 colon, with HCT-15 colon, in the assay with MOLT-4 leukemia and in the assay with A498 renal was more than 100 µM each time.

On to `O=C1[C@@H]2C(c3ccc(Br)cc3)=NO[C@@H]2C(=O)N1c1ccc(Cc2ccc(N3C(=O)[C@H]4C(c5ccc(Br)cc5)=NO[C@H]4C3=O)cc2)cc1`, for which the TGI in the assay with HOP-62 NSCLC is more than 3.48 µM; in the assay on OVCAR-8 ovarian it was more than 40 µM; in the assay on OVCAR-4 ovarian, more than 40 µM; with HOP-92 NSCLC, more than 40 µM; in the assay with HL-60(TB) leukemia it was more than 3.48 µM; with SN12C renal it was more than 40 µM. Besides, the TGI in the assay with COLO 205 colon was more than 40 µM; in the assay with HCT-15 colon, more than 40 µM; in the assay with MOLT-4 leukemia, more than 40 µM; in the assay on A498 renal, > 3.48 µM and 16.2 µM. Also, the GI50 with OVCAR-8 ovarian, with OVCAR-4 ovarian, in the assay with COLO 205 colon and with MOLT-4 leukemia was more than 40 µM each time.

In the case of `O=C1N/C(=N\N=C\c2ccccc2)C(c2ccccc2)O1` (configuration not stated), the TGI in the assay with HOP-62 NSCLC, in the assay on OVCAR-8 ovarian, in the assay with OVCAR-4 ovarian, in the assay on HOP-92 NSCLC, with HL-60(TB) leukemia and with SN12C renal was more than 100 µM in each case. The TGI with COLO 205 colon, with HCT-15 colon, in the assay on MOLT-4 leukemia and in the assay on A498 renal was more than 100 µM in each case.

`COc1ccc(C(O)/C(=N/N)c2nc3ccc(Cl)cc3[nH]c2=O)cc1` (configuration not stated): the TGI in the assay with HOP-62 NSCLC, with OVCAR-8 ovarian, in the assay with OVCAR-4 ovarian, in the assay with HOP-92 NSCLC, in the assay on HL-60(TB) leukemia and in the assay on SN12C renal was more than 100 µM throughout. Further, the TGI in the assay with COLO 205 colon, in the assay with HCT-15 colon, in the assay with MOLT-4 leukemia and with A498 renal was more than 100 µM each time.

Consider `FC(F)(F)c1ccc(C2ON=C(c3ccccc3)N2C23CC4CC(CC(C4)C2)C3)cc1` (configuration not stated), for which the TGI with HOP-62 NSCLC, with OVCAR-8 ovarian, in the assay on OVCAR-4 ovarian, in the assay on HOP-92 NSCLC, in the assay with HL-60(TB) leukemia and with SN12C renal was more than 10 µM throughout. Also, the TGI with COLO 205 colon, with HCT-15 colon, in the assay with MOLT-4 leukemia and with A498 renal was more than 10 µM each time.

Consider `COC1(CC[C@@H](C)COC2OC(CO)C(O)C(O)C2O)O[C@H]2C[C@H]3[C@@H]4CC=C5C[C@@H](OC6OC(CO)C(OC7OC(C)C(O)C(O)C7O)C(O)C6OC6OC(C)C(O)C(O)C6O)CC[C@]5(C)[C@H]4CC[C@]3(C)[C@H]2[C@@H]1C` (some centres not stated), for which the TGI amounted to 4.04 µM with HOP-62 NSCLC; 8.47 µM with OVCAR-8 ovarian; 6.72 µM in the assay on OVCAR-4 ovarian; 7.97 µM in the assay on HOP-92 NSCLC; 13.4 µM with HL-60(TB) leukemia; 19.2 µM with COLO 205 colon. Besides, the TGI in the assay on HCT-15 colon is 3.66 µM; in the assay on MOLT-4 leukemia, more than 26.1 µM; in the assay on A498 renal it was 9.76 µM. For the same molecule, the GI50 with OVCAR-8 ovarian is 2.39 µM; in the assay on OVCAR-4 ovarian, 2.44 µM; in the assay on HOP-92 NSCLC, 2.32 µM; in the assay with HL-60(TB) leukemia, 3.47 µM; in the assay on SN12C renal, 2.87 µM; in the assay with COLO 205 colon, 2.99 µM. The GI50 in the assay with HCT-15 colon is 1.72 µM; in the assay with MOLT-4 leukemia, 5.36 µM; with A498 renal it was 3.86 µM.

For `O=C(Cc1ccccc1)NN1C(=O)C(Cl)C1c1ccccc1Cl` (configuration not stated), the TGI in the assay on HOP-62 NSCLC, in the assay on OVCAR-8 ovarian, in the assay with OVCAR-4 ovarian, in the assay on HOP-92 NSCLC, with HL-60(TB) leukemia and in the assay on SN12C renal was more than 100 µM throughout. Moreover, the TGI in the assay on COLO 205 colon is more than 100 µM; with HCT-15 colon, more than 100 µM; in the assay on MOLT-4 leukemia, 62.8 µM; in the assay on A498 renal, more than 100 µM.

`CN(C)c1ccc(/C=C/C(=O)c2ccc(O)cc2)cc1`: the TGI was more than 100 µM in the assay with HOP-62 NSCLC; more than 100 µM with OVCAR-8 ovarian; more than 100 µM in the assay with OVCAR-4 ovarian; more than 100 µM with HOP-92 NSCLC; 5.57 µM with HL-60(TB) leukemia; more than 100 µM with SN12C renal. Moreover, the TGI in the assay on COLO 205 colon was 26.6 µM; with HCT-15 colon, 40.4 µM; with MOLT-4 leukemia it was 21 µM; with A498 renal, more than 65.7 µM.

For the molecule `CN(C)CCN(C)P12(Oc3ccccc3O1)Oc1c(Cl)c(Cl)c(Cl)c(Cl)c1O2`, the TGI is more than 100 µM in the assay on HOP-62 NSCLC; more than 100 µM with OVCAR-8 ovarian; more than 100 µM with OVCAR-4 ovarian; 92.7 µM with HOP-92 NSCLC; 40.9 µM in the assay with HL-60(TB) leukemia; more than 100 µM in the assay on SN12C renal. Also, the TGI with COLO 205 colon, with HCT-15 colon, in the assay with MOLT-4 leukemia and in the assay on A498 renal was more than 100 µM in each case.

Regarding `Nc1nc(Nc2ccc(Cl)c(Cl)c2)nc2nc[nH]c12`, the TGI turned out to be 26.1 µM in the assay on HOP-62 NSCLC; 28 µM with OVCAR-8 ovarian; 48.4 µM in the assay on OVCAR-4 ovarian; 33.5 µM in the assay on HOP-92 NSCLC; 31.9 µM in the assay on HL-60(TB) leukemia; 44.6 µM with SN12C renal. Also, the TGI came to 44.3 µM in the assay with COLO 205 colon, 37.2 µM in the assay on HCT-15 colon, 39.2 µM in the assay with MOLT-4 leukemia and 21.7 µM in the assay with A498 renal.
